Here are results for 15 compounds from patent US8853219B2, “Compounds and compositions for cognition-enhancement, methods of making, and methods of treating” (NeuroSolis, Inc., priority 2010, dated 2014).

Where a chain is given by its changes, count along the chain named. Read-outs that look alike come from different tables or passages of the source.

Data set [1] addresses T1, human muscarinic M3 receptors (Homo sapiens, UniProt P20309).
T1 construct: host or cells: A9L cells
The data set can be described thus: Stimulation of inositol phosphate production in A9L cells, human M3 (IPOne TR-FRET). In kind it is cell-based. As to conditions: for huM3/A9L Smax: percentage of maximal stimulation by carbachol. As for the experimental part:
(§1) Muscarinic M1 and M3 agonist activity was evaluated by measuring the stimulation of inositol phosphate (IP) production in the presence of lithium chloride from A9L cells transfected with expression plasmids containing human muscarinic M1 and M3 receptors, respectively. The cell lines were a gift from Professor W Messer, and the methods were as described in Tejada F R et al. J. Med. Chem. 2006; 49: 7518-31 except that the assay was scaled down to run in 384 well plates, and IP was measured in the cell lysates using the non-isotopic IPOne TR-FRET assay (CIS-BIO, Inc).
(§2) Cells were grown to 90% confluence in 384 well hi-base plates (Greiner Bio-One), compounds were added at suitable concentrations in growth medium containing 10 mM LiCL, buffered with an extra 10 mM HEPES (pH7.4), and incubated for 60 minutes at 37° C. Cells were lysed and assayed for IP following the manufacturer's instructions.
(§3) The value for a full agonist is 100%, while partial agonists give values below 100%.
A general note: Time-resolved FRET reads energy transfer from a long-lived donor to a nearby acceptor.

Data set [2] has as its target T2, human muscarinic M1 receptors (Homo sapiens, UniProt P11229).
T2 construct: host or cells: A9L cells
T2 sequence (P11229 1-460): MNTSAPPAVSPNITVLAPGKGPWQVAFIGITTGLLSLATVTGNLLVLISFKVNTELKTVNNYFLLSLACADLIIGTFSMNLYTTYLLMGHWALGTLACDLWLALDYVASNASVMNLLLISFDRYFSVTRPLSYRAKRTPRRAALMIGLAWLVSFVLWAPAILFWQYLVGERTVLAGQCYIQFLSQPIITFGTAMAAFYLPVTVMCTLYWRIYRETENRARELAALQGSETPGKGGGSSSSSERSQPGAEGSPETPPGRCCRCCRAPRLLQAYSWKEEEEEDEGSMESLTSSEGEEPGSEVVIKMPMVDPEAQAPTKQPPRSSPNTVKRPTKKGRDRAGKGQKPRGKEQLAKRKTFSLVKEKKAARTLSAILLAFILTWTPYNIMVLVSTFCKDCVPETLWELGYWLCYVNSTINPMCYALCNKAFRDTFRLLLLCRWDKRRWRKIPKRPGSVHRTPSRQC
The data set can be described thus: Stimulation of inositol phosphate production in A9L cells, human M1 (IPOne TR-FRET). Type of data set: cell-based. As to conditions: for huM1/A9L Smax: percentage of maximal stimulation by carbachol. As for the experimental part:
as §1, §2, §3

The test system of data set [3] is pooled male human liver microsomes. The data set can be described thus: Metabolism by human liver microsomes. As to conditions: for Metabolism in human liver microsomes: 6 hours incubation; for Rate of metabolism, S- versus R-enantiomer: human liver microsomes, as also in rat liver microsomes and FMO Supersomes. Type of data set: in vitro ADME. On the procedure: Compounds were incubated with pooled male human liver microsomes (BD Biosciences, #452172) and an NADP-regenerating system in a phosphate buffer (pH 7.4) for a total of 6 hours. Aliquots were removed every 2 hours, and 1% formic acid was added to halt the reaction. Samples were centrifuged, filtered through 0.2 micron spinfilter and the amount of each compound in the supernatants was quantitated using LC/MS/MS.

The target in data set [4] is T3, rat M1 receptors (Rattus norvegicus, UniProt P08482).
T3 construct: host or cells: Chinese Hamster Ovary cells (M1-CHO)
T3 sequence (P08482 1-460): T2 sequence (P11229 1-460) with A5V, T254S, P309S, R320K, A337G, I413V
The data set can be described thus: PI turnover (inositol phosphate production) in M1-CHO cells. Type of data set: cell-based. The conditions noted are these: M1 versus M3 cell lines. As for the experimental part: The medium was changed to 70 μL/well of inositol-free DMEM containing 2 mM glutamine, 10% FBS and 10 μCi/ml of [3H]-inositol (PE:cat #NET114A250UC), incubated overnight as above, then 100 μL of a solution of the test compound in HBSS containing 10 mM LiCl and 20 mM HEPES, pH 7.4 was added, incubation was continued for 60 min under the above conditions, and the test was stopped by removing the test compound and replacing with 100 μL of 50 mM formic acid in water at 4° C.

Data set [5] in a line: Blood and brain concentrations (rats) after oral gavage. Type of data set: in vivo, rat. On the procedure: Long-Evans Hooded rats (Charles River: male, 250-350 g) were dosed with solutions of test compounds in PBS by oral gavage. At the desired time after dosing, the animals were anesthetized with isoflurane, and then euthanized by cervical dislocation. Blood was obtained by cardiac puncture, transferred to a 1.5 mL microcentrifuge tube containing 15U Heparin, and the plasma recovered after centrifugation. Brains were dissected, weighed, immediately chilled to 4° C., and homogenized using a PowerGen 125 homogenizer in five volumes of ice-cold 2% formic acid. Proteins were precipitated from plasma and brain homogenate with two and five volumes respectively of ice-cold 2% formic acid and clarified by centrifugation. The supernatant was ultra-filtered by centrifugation through a 3K MWCO spin column (Pall Life Sciences), following the manufacturer's instructions. The concentration of compound in the ultra-filtrate was subjected to reverse-phase liquid chromatography using a 150×2.1 mm Agilent C8 reverse-phase column on a Shimadzu Prominence LC, eluting the compounds with a gradient of 2% to 50% of acetonitrile+0.1% formic acid for compound MI-50,382, or an isocratic flow of 2% acetonitrile+0.1% formic acid for the rest of the compounds listed. The concentration of the compound in the column effluent was measured using an Applied Biosystems API-3200 triple quadrupole mass spectrometer equipped with an electrospray sample injection system. The counts of the characteristic parent and product ions of each test compound were converted to concentration units by comparison with a standard calibration curve.

T1 sequence (P20309 whole entry): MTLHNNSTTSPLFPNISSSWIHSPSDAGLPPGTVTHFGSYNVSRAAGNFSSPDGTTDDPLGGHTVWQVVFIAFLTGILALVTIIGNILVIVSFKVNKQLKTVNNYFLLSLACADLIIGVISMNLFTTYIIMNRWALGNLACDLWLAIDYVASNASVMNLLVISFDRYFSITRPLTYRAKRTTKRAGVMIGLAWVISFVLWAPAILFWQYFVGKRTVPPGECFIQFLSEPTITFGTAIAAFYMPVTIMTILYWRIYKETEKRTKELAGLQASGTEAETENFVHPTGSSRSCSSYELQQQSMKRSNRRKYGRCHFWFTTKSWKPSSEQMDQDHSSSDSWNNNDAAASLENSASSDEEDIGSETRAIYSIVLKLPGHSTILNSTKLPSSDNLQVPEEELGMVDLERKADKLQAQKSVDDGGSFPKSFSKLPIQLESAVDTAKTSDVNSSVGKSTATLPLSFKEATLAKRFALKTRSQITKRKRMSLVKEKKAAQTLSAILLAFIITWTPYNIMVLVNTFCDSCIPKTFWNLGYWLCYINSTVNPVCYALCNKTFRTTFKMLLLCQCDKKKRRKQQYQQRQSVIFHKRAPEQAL

For `Cc1noc([C@H]2CCCN[C@@H]2C)n1` [Compound 21], in data set [1], the “huM3/A9L Smax” value worked out at 14%. In addition, the “huM1/A9L Smax” value in data set [2] is 18%.

With `Cc1noc([C@@H]2CCCNC2)n1` [Compound 3b, R-(−)-3-methyl-5-(piperidin-3-yl)-1,2,4-oxadiazole], in data set [3], the “Metabolism in human liver microsomes” value is “metabolized significantly less in human liver microsomes than in rat liver microsomes”. In addition, in data set [1], the “huM3/A9L ED50 relative to CCh” value is “− (key: ++: potency > 10x CCh; +: potency 2-10x CCh; +/−: potency 0.5-2x CCh; −: potency < 0.5-0.1x CCh; −−: potency < 0.1x CCh; inactive: potency too low to determine)”. The “huM1/A9L ED50 relative to CCh” value in data set [2] is “+/− (key: ++: potency > 10x CCh; +: potency 2-10x CCh; +/−: potency 0.5-2x CCh; −: potency < 0.5-0.1x CCh; −−: potency < 0.1x CCh; inactive: potency too low to determine)”.

Regarding `Cc1noc([C@H]2CCCN[C@@H]2C)n1` [Compound 22], the “huM3/A9L Smax” value in data set [1] is reported as 15%. The “huM1/A9L Smax” value in data set [2] is on record as 7%.

On to `Nc1noc(C2CCCNC2)n1` (stereo not drawn) [Compound 27, 3-Amino-5-(piperidin-3-yl)-1,2,4-oxadiazole], for which the “huM3/A9L ED50 relative to CCh” value in data set [1] is “+/− (key: ++: potency > 10x CCh; +: potency 2-10x CCh; +/−: potency 0.5-2x CCh; −: potency < 0.5-0.1x CCh; −−: potency < 0.1x CCh; inactive: potency too low to determine)”. Besides, the “huM1/A9L ED50 relative to CCh” value in data set [2] is “+ (key: ++: potency > 10x CCh; +: potency 2-10x CCh; +/−: potency 0.5-2x CCh; −: potency < 0.5-0.1x CCh; −−: potency < 0.1x CCh; inactive: potency too low to determine)”.

For the compound `Cc1noc([C@H]2CCCN[C@@H]2C)n1` [Compound 24], the “huM3/A9L Smax” value in data set [1] is given as 32%. Further, in data set [2], the “huM1/A9L ED50 relative to CCh” value was “−− (key: ++: potency > 10x CCh; +: potency 2-10x CCh; +/−: potency 0.5-2x CCh; −: potency < 0.5-0.1x CCh; −−: potency < 0.1x CCh; inactive: potency too low to determine)” and the “huM1/A9L Smax” value came out at 41%.

In the case of `Cc1noc([C@H]2CCCNC2)n1` [Compound 3a, S-(+)-3-methyl-5-(piperidin-3-yl)-1,2,4-oxadiazole], in data set [3], the “Metabolism in human liver microsomes” value is recorded as “metabolized significantly less in human liver microsomes than in rat liver microsomes” and the “Rate of metabolism, S- versus R-enantiomer” value is on record as “metabolized faster than the R-enantiomers”. In addition, in data set [1], the “huM3/A9L ED50 relative to CCh” value is “+/− (key: ++: potency > 10x CCh; +: potency 2-10x CCh; +/−: potency 0.5-2x CCh; −: potency < 0.5-0.1x CCh; −−: potency < 0.1x CCh; inactive: potency too low to determine)”. Besides, the “huM1/A9L ED50 relative to CCh” value in data set [2] was “+ (key: ++: potency > 10x CCh; +: potency 2-10x CCh; +/−: potency 0.5-2x CCh; −: potency < 0.5-0.1x CCh; −−: potency < 0.1x CCh; inactive: potency too low to determine)”.

Turning to `Cc1noc(C2CCNC2)n1` (stereo not drawn) [Compound 31, 3-methyl-5-(pyrrolidin-3-yl)-1,2,4-oxadiazole], the “huM3/A9L ED50 relative to CCh” value in data set [1] (potency class relative to carbachol) was “− (potency < 0.5-0.1x CCh)”.

`[2H]C([2H])([2H])c1noc([C@H]2CCCNC2)n1` [Compound 7a, S-(+)-3-D3-methyl-5-(piperidin-3-yl)-1,2,4-oxadiazole]: in data set [3], the “Metabolism in human liver microsomes” value is “metabolized significantly less in human liver microsomes than in rat liver microsomes” and the “Rate of metabolism, S- versus R-enantiomer” value is listed as “metabolized faster than the R-enantiomers”. The “huM3/A9L ED50 relative to CCh” value in data set [1] is “−− (key: ++: potency > 10x CCh; +: potency 2-10x CCh; +/−: potency 0.5-2x CCh; −: potency < 0.5-0.1x CCh; −−: potency < 0.1x CCh; inactive: potency too low to determine)”. Further, the “huM1/A9L ED50 relative to CCh” value in data set [2] was “+/− (key: ++: potency > 10x CCh; +: potency 2-10x CCh; +/−: potency 0.5-2x CCh; −: potency < 0.5-0.1x CCh; −−: potency < 0.1x CCh; inactive: potency too low to determine)”.

As to `Cc1noc([C@H]2CCCN[C@@H]2C)n1` [Compound 20], the “huM1/A9L Smax” value in data set [2] is recorded as 9%.

Take `Cl.[2H]C([2H])([2H])C([2H])([2H])c1noc(C2CN=CNC2)n1` (stereo not drawn) [compound 2, 3-(1,1,2,2,2-d5-ethyl)-5-(1,4,5,6-tetrahydropyrimidin-5-yl)-1,2,4-oxadiazole hydrochloride]: the “Functional selectivity for M1 subtype by PI turnover” value in data set [4] is “M1-subtype functionally selective muscarinic agonists”. Moreover, the “Brain Cmax (10 mg/kg po) 1 hr MCD-386 = 1.00” value in data set [5] (rat brain, 10 mg/kg po, 1 hr, relative to MCD-386) was 0.61. Also, the “Penetration into the brain” value in data set [5] (rats after oral dosing) is listed as “penetrated into the brain”.

Turning to `[2H]C([2H])([2H])c1noc([C@@H]2CCCNC2)n1` [Compound 7b, R-(−)-3-D3-methyl-5-(piperidin-3-yl)-1,2,4-oxadiazole], the “Metabolism in human liver microsomes” value in data set [3] was “metabolized significantly less in human liver microsomes than in rat liver microsomes”. The “huM3/A9L ED50 relative to CCh” value in data set [1] is “+/− (key: ++: potency > 10x CCh; +: potency 2-10x CCh; +/−: potency 0.5-2x CCh; −: potency < 0.5-0.1x CCh; −−: potency < 0.1x CCh; inactive: potency too low to determine)”. Besides, the “huM1/A9L ED50 relative to CCh” value in data set [2] is “+ (key: ++: potency > 10x CCh; +: potency 2-10x CCh; +/−: potency 0.5-2x CCh; −: potency < 0.5-0.1x CCh; −−: potency < 0.1x CCh; inactive: potency too low to determine)”.

Consider `Cc1nsc(C2CCCNC2)n1.Cl` (stereo not drawn) [Compound 12a, 3-methyl-5-(piperidin-3-yl)-1,2,4-thiadiazole hydrochloride], for which the “huM3/A9L ED50 relative to CCh” value in data set [1] was “+ (key: ++: potency > 10x CCh; +: potency 2-10x CCh; +/−: potency 0.5-2x CCh; −: potency < 0.5-0.1x CCh; −−: potency < 0.1x CCh; inactive: potency too low to determine)”. Further, the “huM1/A9L ED50 relative to CCh” value in data set [2] was “+ (key: ++: potency > 10x CCh; +: potency 2-10x CCh; +/−: potency 0.5-2x CCh; −: potency < 0.5-0.1x CCh; −−: potency < 0.1x CCh; inactive: potency too low to determine)”.

Turning to `Cc1noc([C@H]2CCCN[C@@H]2C)n1` [Compound 19], the “huM3/A9L Smax” value in data set [1] turned out to be 34%. For the same compound, the “huM1/A9L Smax” value in data set [2] amounted to 15%.

For the compound `Cc1noc([C@H]2CCCN[C@@H]2C)n1` [Compound 23], the “huM3/A9L Smax” value in data set [1] was 19%. Further, the “huM1/A9L Smax” value in data set [2] is reported as 23%.

For the compound `c1nsc(C2CCCNC2)n1` (stereo not drawn) [Compound 12b, 5-(piperidin-3-yl)-1,2,4-thiadiazole], the “huM3/A9L ED50 relative to CCh” value in data set [1] is “−− (key: ++: potency > 10x CCh; +: potency 2-10x CCh; +/−: potency 0.5-2x CCh; −: potency < 0.5-0.1x CCh; −−: potency < 0.1x CCh; inactive: potency too low to determine)”. Moreover, the “huM1/A9L ED50 relative to CCh” value in data set [2] was “− (key: ++: potency > 10x CCh; +: potency 2-10x CCh; +/−: potency 0.5-2x CCh; −: potency < 0.5-0.1x CCh; −−: potency < 0.1x CCh; inactive: potency too low to determine)”.
